Measurements as given in patent US10676442B2, “Salt derivative of tetrahydroisoquinoline and crystalline thereof and preparation method therefore and application thereof” (CHINA STATE INSTITUTE OF PHARMACEUTICAL INDUSTRY, priority 2016, dated 2020).
≈ marks a conversion by molar mass, not a printed value. Where “and” joins values, the source holds several entries; their conditions need not be identical. Identical values can stand only once. Entries after “also recorded” stand apart in the source; their conditions may differ. Counter-ions that a name gives are not always drawn. Like-named read-outs stand apart in the source and are kept apart here.

Experiments:
[1] = Measurement of solubility in water by liquid chromatography; type: physicochemical; settings: for solubility at 12 h: thermodynamic from solid; for solubility at 12 h / Solubility in water: in water, saturated solution shaken 12 hrs at 30° C., HPLC; for Solubility in water compared to SIPI-409 and SIPI-409 hydrochloride: in words
Description: Solubility of SIPI-409 and of the salt derivatives thereof in water was measured by liquid chromatography.
Main steps: preparing SIPI-409 standards at the concentrations of 5 ? g/mL, 10 ? g/mL, 50 ? g/mL, 100 ? g/mL, 200 ? g/mL and establishing the standard curve of these preparations.
Chromatography Conditions:
Chromatography column: Phenomenex Luna 5u C18(2) 100 A 4.6×200 mm
Detection wave-length: 210 nm
Mobile phase: acetonitrile/phosphate buffer (0.68 g/L monopotassium phosphate, pH was adjusted to 3.0 using triethylamine)=68/32
Column temperature: 30° C.
Load volume: 10 ? L
Residence time: around 6.3 min
Sample treatment: the test samples were prepared into saturated solutions in water (suspensions) and shaken for 12 hrs at 30° C., which were further ultrasonicated for 30 s, followed by filtration and preparation of serial dilutions as appropriate, which were then analyzed by HPLC.

[2] = Temperature stability investigation (60° C. oven, XRPD); type: physicochemical; settings: oven at 60° C., XRPD on day 0, 5, 10, 20 and 30
Description: Phosphate, nicotinate, glycolate, oxalate, orotate, benzenesulfonate and sulfate of SIPI-409 were placed in an oven at 60° C. XRPD measurements were carried out on samples taken out on day 0, 5, 10, 20 and 30.

[3] = Humidity stability investigation (92.5% RH, XRPD); type: physicochemical; settings: 92.5% RH (saturated KNO3), XRPD on day 0, 5, 10, 20 and 30
Description: The phosphate, nicotinate, glycolate, oxalate, orotate, benzenesulfonate and sulfate of SIPI-409 were kept in a 92.5% RH (saturated KNO3) atomosphere. XRPD measurements were carried out on samples taken out on day 0, 5, 10, 20 and 30.

[4] = Light stability investigation (light incubator, XRPD); type: physicochemical
Description: The phosphate, nicotinate, glycolate, oxalate, orotate, benzenesulfonate and sulfate of SIPI-409 were placed in a light incubator. XRPD measurements were carried out on samples taken out on day 0, 5, 10, 20 and 30.

[5] = Hygroscopicity investigation (dynamic vapor sorption); type: physicochemical; settings: dynamic vapor sorption analyzer
Description: Hygroscopicity was further investigated by placing the phosphate, nicotinate, glycolate, oxalate, orotate, benzenesulfonate and sulfate of SIPI-409 in a dynamic vapor sorption (DVS) analyzer.

[6] = Pharmacokinetic study, single oral dose in SD rats (LC-MS/MS of plasma); type: in vivo
Description: SIPI-409 hydrochloride and SIPI-409 phosphate were administrated peros (PO), and were studied on in vivo pharmacokinetic parameters and bioavailability in SD rats. Concentrations of SIPI-409 hydrochloride and SIPI-409 phosphate in plasma were measured at intervals using Liquid Chromatography-Mass Spectrometry-Mass Spectrometry assay.
The obtained plasma concentration data were processed using the pharmacokinetic processing software WinNonlin 5.2 to calculate the relevant pharmacokinetic parameters according to non-compartmental model.

[7] = Preliminary pharmacokinetic studies (background); type: in vivo, SD rats; settings: for bioavailability: rat, plasma, oral administration, SD rats
Description: This can be explained by the excessively low solubility of the salt.

[8] = Pharmacokinetics after intravenous administration in SD rats; type: in vivo; settings: α-crystalline form, compared with SIPI-409 hydrochloride
[9] = XRPD on day 0, 5, 10, 20 and 30
[10] = PO 10 mg/kg (based on SIPI-409), single dose, 10 mg/kg

SMILES	Stability 60° C. [2]	Stability 92.5% RH [3]	Stability Light [4, 9]	DVS Max Hygroscopicity [5] [%]	Solubility in water [1] [mg/mL]	Solubility in water compared to SIPI-409 and SIPI-409 hydrochloride [1]	further results
COc1cc2c(cc1OCc1ccccc1)C(Cc1cccc(NS(C)(=O)=O)c1)NCC2 (racemic) [SIPI-409 Malate, 1-(3-methanesulfonamidobenzyl)-6-methoxy,7-benzyloxy-1,2,3,4-tetrahydroisoquinoline]	–	–	–	–	–	–	solubility at 12 h ([1]; water, 30 °C, water, read-out: Solubility): 650 µM; solubility at 12 h ([1]; water, 30 °C, water, read-out: Solubility in water): 0.38 mg/mL
COc1cc2c(cc1OCc1ccccc1)C(Cc1cccc(NS(C)(=O)=O)c1)NCC2 (stereo not shown) [SIPI-409 Benzenesulfonate, 1-(3-methanesulfonamidobenzyl)-6-methoxy,7-benzyloxy-1,2,3,4-tetrahydroisoquinoline]	Stable	Hygroscopic	Stable	4.5	–	–	solubility at 12 h ([1]; read-out: Solubility): 3210 µM; solubility at 12 h ([1]; read-out: Solubility in water): 1.96 mg/mL
COc1cc2c(cc1OCc1ccccc1)C(Cc1cccc(NS(C)(=O)=O)c1)NCC2 (stereo not shown) [SIPI-409 Ethionate, 1-(3-methanesulfonamidobenzyl)-6-methoxy,7-benzyloxy-1,2,3,4-tetrahydroisoquinoline]	–	–	–	–	0.44 (≈ 972 µM)	–	–
COc1cc2c(cc1OCc1ccccc1)C(Cc1cccc(NS(C)(=O)=O)c1)NCC2 (stereo not shown) [SIPI-409 Fumarate, 1-(3-methanesulfonamidobenzyl)-6-methoxy,7-benzyloxy-1,2,3,4-tetrahydroisoquinoline]	–	–	–	–	0.12	–	–
COc1cc2c(cc1OCc1ccccc1)C(Cc1cccc(NS(C)(=O)=O)c1)NCC2 (stereo not shown) [SIPI-409 Glycolate, 1-(3-methanesulfonamidobenzyl)-6-methoxy,7-benzyloxy-1,2,3,4-tetrahydroisoquinoline]	Stable	Stable	Stable	0.8	3.21 (≈ 7090 µM)	significantly increased solubility in water	–
COc1cc2c(cc1OCc1ccccc1)C(Cc1cccc(NS(C)(=O)=O)c1)NCC2 (stereo not shown) [SIPI-409 Hydrobromate, 1-(3-methanesulfonamidobenzyl)-6-methoxy,7-benzyloxy-1,2,3,4-tetrahydroisoquinoline]	–	–	–	–	0.44 (≈ 972 µM)	–	–
COc1cc2c(cc1OCc1ccccc1)C(Cc1cccc(NS(C)(=O)=O)c1)NCC2 (stereo not shown) [SIPI-409 Hydrochloride, 1-(3-methanesulfonamidobenzyl)-6-methoxy,7-benzyloxy-1,2,3,4-tetrahydroisoquinoline, reference compound]	–	–	–	–	0.51	–	Tmax ([6]; PO 10 mg/kg (based on SIPI-409), single dose): 0.33 h; AUC(0-t) [6, 10]: 0.48288 µg·h/mL; AUC(0-∞) [6, 10]: 0.50382 µg·h/mL; Cmax [6, 10]: 0.19196 µg/mL; F (bioavailability) [6, 10]: 24.63%; t1/2 [6, 10]: 1.8 h; t1/2 of injection ([7]; injection, compared with Sotalol): close to that of Sotalol; bioavailability [7]: 24%
COc1cc2c(cc1OCc1ccccc1)C(Cc1cccc(NS(C)(=O)=O)c1)NCC2 (stereo not shown) [SIPI-409 Nicotinate, 1-(3-methanesulfonamidobenzyl)-6-methoxy,7-benzyloxy-1,2,3,4-tetrahydroisoquinoline]	less stable against heat and degraded since day 5; also recorded: Instable	Hygroscopic	Stable	4.5	4.26 (≈ 9410 µM)	significantly increased solubility in water	–
COc1cc2c(cc1OCc1ccccc1)C(Cc1cccc(NS(C)(=O)=O)c1)NCC2 (stereo not shown) [SIPI-409 Orotate, 1-(3-methanesulfonamidobenzyl)-6-methoxy,7-benzyloxy-1,2,3,4-tetrahydroisoquinoline]	Stable	Stable	Stable	1.1	1.93 (≈ 4260 µM)	significantly increased solubility in water	–
COc1cc2c(cc1OCc1ccccc1)C(Cc1cccc(NS(C)(=O)=O)c1)NCC2 (stereo not shown) [SIPI-409 Oxalate, 1-(3-methanesulfonamidobenzyl)-6-methoxy,7-benzyloxy-1,2,3,4-tetrahydroisoquinoline]	Stable	Hygroscopic	Stable	9.5	3.52	significantly increased solubility in water	–
COc1cc2c(cc1OCc1ccccc1)C(Cc1cccc(NS(C)(=O)=O)c1)NCC2 (stereo not shown) [SIPI-409 Phosphate, 1-(3-methanesulfonamidobenzyl)-6-methoxy,7-benzyloxy-1,2,3,4-tetrahydroisoquinoline]	–	–	–	–	9.69	significantly increased solubility in water	AUC(0-t) [6, 10]: 1.36689 µg·h/mL; AUC(0-∞) [6, 10]: 1.43793 µg·h/mL; F (bioavailability) [6, 10]: 79% and 79.33%; half-life ([6]; SD, rat, plasma, po, 10 mg/kg, PO 10 mg/kg (based on SIPI-409), single dose): 2.66 h; Cmax ([6]; SD, rat, plasma, po, 10 mg/kg, PO 10 mg/kg (based on SIPI-409), single dose, read-out: Cmax): 0.376 µg/mL; MRT inf ([6]; SD, rat, plasma, po, 10 mg/kg, PO 10 mg/kg (based on SIPI-409), single dose, read-out: MRT(0-∞)): 4.23 h; Increase of bioavailability compared to SIPI-409 hydrochloride ([6]; oral administration): 329%; Tmax ([6]; rat, plasma, PO 10 mg/kg (based on SIPI-409), single dose, read-out: Tmax): 0.33 h; Pharmacokinetic parameters after intravenous administration [8]: substantially comparable to SIPI-409 hydrochloride; Stability 60° C. ([2]; listed as SIPI-409 phosphate): satisfactory stabilities; Stability 60° C. ([2]; listed as phosphate): Stable; Stability 92.5% RH ([3]; listed as SIPI-409 phosphate): satisfactory stabilities; Stability 92.5% RH ([3]; listed as phosphate): Stable; Stability Light ([4]; XRPD on day 0, 5, 10, 20 and 30, listed as SIPI-409 phosphate): satisfactory stabilities; Stability Light ([4]; XRPD on day 0, 5, 10, 20 and 30, listed as phosphate): Stable; DVS Max Hygroscopicity ([5]; listed as SIPI-409 phosphate): 0.7%; DVS Max Hygroscopicity ([5]; listed as phosphate): 0.7%
COc1cc2c(cc1OCc1ccccc1)C(Cc1cccc(NS(C)(=O)=O)c1)NCC2 (stereo not shown) [SIPI-409 Succinate, 1-(3-methanesulfonamidobenzyl)-6-methoxy,7-benzyloxy-1,2,3,4-tetrahydroisoquinoline]	–	–	–	–	0.16	–	–
COc1cc2c(cc1OCc1ccccc1)C(Cc1cccc(NS(C)(=O)=O)c1)NCC2 (stereo not shown) [SIPI-409 Sulfate, 1-(3-methanesulfonamidobenzyl)-6-methoxy,7-benzyloxy-1,2,3,4-tetrahydroisoquinoline]	Stable	Hygroscopic	Stable	5.2	5.76	significantly increased solubility in water	–
COc1cc2c(cc1OCc1ccccc1)C(Cc1cccc(NS(C)(=O)=O)c1)NCC2 (stereo not shown) [SIPI-409 Tartarate, 1-(3-methanesulfonamidobenzyl)-6-methoxy,7-benzyloxy-1,2,3,4-tetrahydroisoquinoline]	–	–	–	–	0.22 (≈ 486 µM)	–	–
COc1cc2c(cc1OCc1ccccc1)C(Cc1cccc(NS(C)(=O)=O)c1)NCC2 (stereo not shown) [SIPI-409, 1-(3-methanesulfonamidobenzyl)-6-methoxy,7-benzyloxy-1,2,3,4-tetrahydroisoquinoline, reference compound]	–	–	–	–	0.07 (≈ 155 µM)	–	–
CC(C)NCC(O)c1ccc(NS(C)(=O)=O)cc1 (stereo not shown) [Sotalol]	–	–	–	–	–	–	bioavailability [7]: 70%
